Test results taken from paper PMC9920598, “Impact of Starch Binding Domain Fusion on Activities and Starch Product Structure of 4-α-Glucanotransferase” (Molecules, 2023).

Key:
SBDGA-TuαGT = system: T1, SBDGA-TuαGT; test: glucose release (GOPOD), Michaelis-Menten fit; assay type: biochemical, Thermoproteus uzoniensis; conditions: disproportionation (maltotriose donor and acceptor); 70 °C, pH 7.0, 50 mM Hepes, 150 mM NaCl; 10 nM enzyme; read-out: SBDGA-TuaGT
T1 construct: gene malQ; E. coli; 69,562 Da; with Glucoamylase (Aspergillus niger), C-terminal CBM20 domain SBDGA
Source text: glucose release (GOPOD), Michaelis-Menten fit on SBDGA-TuαGT

SBDSt1-TuαGT = system: T2, SBDSt1-TuαGT; test: glucose release (GOPOD), Michaelis-Menten fit; assay type: biochemical, Thermoproteus uzoniensis; conditions: disproportionation (maltotriose donor and acceptor); 70 °C, pH 7.0, 50 mM Hepes, 150 mM NaCl; 10 nM enzyme; read-out: SBDSt1-TuaGT
T2 construct: gene malQ; E. coli; 68,272 Da; with 4-alpha-glucanotransferase DPE2 (Solanum tuberosum), first CBM20 domain SBDSt1
Source text: glucose release (GOPOD), Michaelis-Menten fit on SBDSt1-TuαGT

Compound `OC[C@H]1O[C@H](O[C@H]2[C@H](O)[C@@H](O)[C@@H](O[C@H]3[C@H](O)[C@@H](O)C(O)O[C@@H]3CO)O[C@@H]2CO)[C@H](O)[C@@H](O)[C@@H]1O` (some centres unmarked) [maltotriose] has a Km (SBDGA-TuαGT) of 1.4 ± 0.1 µM and a Km (SBDSt1-TuαGT) of 3.5 ± 0.2 µM.
